One assay relates to Mia Paca-2 cells. The assay is described as follows: Histone H3 (Ser10) phosphorylation ELISA, abrogation of camptothecin-induced G2 arrest (CHK-1 cellular assay). The settings on record: camptothecin 8 hrs, then compound with nocodozole 16 hours. The format is cell-based. The procedure: The Histone H3 phosphorylation ELISA assay detects cells entering mitosis and represents the primary in vitro cell-based assay used to measure the cellular potency of compounds in abrogating the G2 check point induced by DNA damage in HeLa cells or MiaPaCa cells. The candidate substances were assayed for potency in their ability to inhibit camptothecin-induced G2 arrest, as measured by an increase in Histone H3 phosphorylation on Ser10, a marker of entry into mitosis.
The PathScan Phospho-Histone H3 (Ser10) Sandwich ELISA kit was used (Cell Signaling, #7155) and the assay was performed according to manufacturer recommendations. Tissue culture plates were seeded with HeLa cells or MiaPaCa Cells and allowed to attach overnight. The cells were then treated with camptothecin to induce DNA damage for 8 hrs. Candidate substances or diluent were then added in the presence of nocodozole for 16 hours. Cells were then lysed with buffer from Assay Designs (#80-1114) supplemented with protease inhibitors and frozen overnight. The fresh whole cell lysates were then thawed and added to the ELISA plate with shaking for 3 hours. Between all subsequent steps plates were washed 4 times with PBST. Biotinylated phospho Histone H3 (ser10) detection antibody was added for 1 hour, followed by addition of horseradish peroxidase-linked streptavidin secondary antibody for 1 hour. Color development of the antibody was performed with addition of TMB substrate and incubation for 2 minutes on a plate shaker. Stop solution was added and plates were read with absorbance at 450 nm on a spectrophotometer. EC50 values were calculated by sigmoid curve fitting using a four-parameter analysis.
Under the “Ki” column, data entries in the format of “%” are percent inhibition data where no Ki data is available. Data entry under the “EC50” column with an * are data obtained using Mia Paca-2 cells rather than HeLa cells. Data is not available where noted as n/a.

The target of a further assay is T1, CHK1 (kinase domain) (Homo sapiens, UniProt O14757).
T1 construct: a solution containing 1 nM of CHK1 (kinase domain)
T1 sequence (O14757 9-265 limits assumed): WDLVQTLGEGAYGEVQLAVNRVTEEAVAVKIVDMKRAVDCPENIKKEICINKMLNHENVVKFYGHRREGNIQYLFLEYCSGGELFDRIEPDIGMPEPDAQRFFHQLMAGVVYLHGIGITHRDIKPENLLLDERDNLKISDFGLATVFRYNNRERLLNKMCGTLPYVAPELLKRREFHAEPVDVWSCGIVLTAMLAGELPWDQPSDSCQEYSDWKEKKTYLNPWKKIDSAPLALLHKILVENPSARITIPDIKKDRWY
Description: CHK1 Ki determination, spectrophotometric coupled (pyruvate kinase/lactate dehydrogenase) assay. In kind it is biochemical. The settings on record: CHK-1 kinase domain; for Ki: 150 uM ATP, 125 uM Syntide 2; for percent inhibition (where no Ki data is available): inhibitor concentration not given. In short, it runs like this: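 The CHK1 kinase domain was pre-incubated with compound for 15 min, and the reaction was started with 125 uM Syntide 2 and 150 uM ATP. ADP formation was coupled through pyruvate kinase/lactate dehydrogenase to NADH oxidation, read as the A340 decrease. Kiapp was fitted with a tight-binding equation that accounts for enzyme concentration and ATP Km; some entries are % inhibition.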

For another assay, the system named is HeLa cells. The assay is described as follows: Histone H3 (Ser10) phosphorylation ELISA, abrogation of camptothecin-induced G2 arrest (CHK-1 cellular assay). In kind it is cell-based. The settings on record: Homo sapiens, HeLa, HeLa cells; camptothecin 8 hrs, then compound with nocodozole 16 hours; read-out: EC50. A digest of the protocol:
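HeLa cells, or MiaPaCa-2 where marked, received camptothecin for 8 h, then compound with nocodazole for 16 h. Ser10-phosphorylated histone H3 in lysates was measured by ELISA with a biotinylated antibody, streptavidin-HRP and TMB. EC50 came from four-parameter sigmoid fits.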

[1] abbreviates: Homo sapiens, MIA PaCa-2, Mia Paca-2 cells (entries marked *).
The mark [2] stands for this setting: Homo sapiens, Mia Paca-2 cells (entries marked *).

Some results are limits rather than exact numbers.

Consider 26 molecules from US8518952B2, “6 substituted 2-heterocyclylamino pyrazine compounds as CHK-1 inhibitors” (Pfizer Inc., priority 2008, dated 2013).

`Cc1ncc(N[C@@H]2CCCNC2)nc1-c1cnc2ccccn12` [Example 247, 6-(imidazo[1,2-a]pyridin-3-yl)-5-methyl-N-[(3R)-piperidin-3-yl]pyrazin-2-amine]: the midpoint of the response in the assay on Mia Paca-2 cells (setting [1]), the EC50, lay at 1110 nM. The molecule further came in with an inhibition constant (Ki) at CHK1 (kinase domain) of 192 nM.

In the assay on Mia Paca-2 cells (setting [2]), `C[C@@H]1CNC[C@@H]1Nc1cncc(-c2cnc3ccc(Cl)cn23)n1` [Example 229, 6-(6-chloroimidazo[1,2-a]pyridin-3-yl)-N-[(3R,4R)-4-methylpyrrolidin-3-yl]pyrazin-2-amine] displayed a concentration giving a half-maximal response (EC50) of 9.75 nM. Besides, at CHK1 (kinase domain), affinity was put at a Ki of 4.4 nM.

Turning to `C[C@@H]1CCNC[C@@H]1Nc1cncc(-c2cnc3cc(Cl)ccn23)n1` [Example 205, 6-(7-chloroimidazo[1,2-a]pyridin-3-yl)-N-[(3R,4R)-4-methylpiperidin-3-yl]pyrazin-2-amine], the EC50 in the assay with Mia Paca-2 cells (setting [1]) worked out at 55.2 nM. The same molecule came in with an inhibition constant (Ki) on CHK1 (kinase domain) of 38.3 nM.

Consider `N#Cc1ccn2c(-c3cncc(N[C@@H]4C[C@@H]5CN[C@H]4C5)n3)cnc2c1` [Example 162, 3-{6-[(1S,4R,6R)-2-azabicyclo[2.2.1]hept-6-ylamino]pyrazin-2-yl}imidazo[1,2-a]pyridine-7-carbonitrile], for which the concentration giving a half-maximal response (EC50) in the assay with Mia Paca-2 cells (setting [2]) is 321 nM.

On to `NC(=O)c1ccn2c(-c3cncc(N[C@@H]4CCCNC4)n3)cnc2c1` [Example 86, 3-{6-[(3R)-piperidin-3-ylamino]pyrazin-2-yl}imidazo[1,2-a]pyridine-7-carboxamide], for which a half-maximal effect in the assay on Mia Paca-2 cells (setting [1]) (EC50) was put at 295 nM. The Ki at CHK1 (kinase domain) came to 1.68 nM.

As for `FC(F)(F)c1ccc2ncc(-c3cncc(N[C@@H]4CCNC4)n3)n2c1` [Example 13, N-[(3R)-pyrrolidin-3-yl]-6-[6-(trifluoromethyl)imidazo[1,2-a]pyridin-3-yl]pyrazin-2-amine], in the assay with Mia Paca-2 cells (setting [2]), the midpoint of the response, the EC50, lay at 513 nM. The molecule also came in with a Ki at CHK1 (kinase domain) of 12.8 nM.

`CO[C@H]1CCNC[C@@H]1Nc1cncc(-c2cnc3ccccn23)n1` [Example 259, 6-(imidazo[1,2-a]pyridin-3-yl)-N-[(3S,4S)-4-methoxypiperidin-3-yl]pyrazin-2-amine] had a concentration for a half-maximal effect (EC50) with Mia Paca-2 cells (Mia Paca-2 cells (entries marked *)) of 38.8 nM. Moreover, the inhibitory constant (Ki) at CHK1 (kinase domain) turned out to be 3.82 nM.

In turn, `CC(C)c1cn2c(-c3cncc(N[C@@H]4CC[C@@H](C)NC4)n3)cnc2s1` [Example 110, 6-(2-isopropylimidazo[2,1-b][1,3]thiazol-5-yl)-N-[(3R,6R)-6-methylpiperidin-3-yl]pyrazin-2-amine] came in with an EC50 in the assay on Mia Paca-2 cells (setting [2]) of 589 nM. The molecule further gave an inhibitory constant (Ki) on CHK1 (kinase domain) of 17.3 nM.

Consider `Cc1cn2c(-c3cncc(N[C@H]4CN[C@H](CO)C4)n3)cnc2s1` [Example 237, [(2S,4R)-4-{[6-(2-methylimidazo[2,1-b][1,3]thiazol-5-yl)pyrazin-2-yl]amino}pyrrolidin-2-yl]methanol], for which, in the assay on Mia Paca-2 cells (setting [2]), the concentration for a half-maximal effect (EC50) came out at 46.7 nM. The molecule also returned a Ki on CHK1 (kinase domain) of 2.98 nM.

Regarding `COC[C@@H]1C[C@@H](Nc2cncc(-c3cnc4ccccn34)n2)CN1` [Example 157, 6-(imidazo[1,2-a]pyridin-3-yl)-N-[(3R,5S)-5-(methoxymethyl)pyrrolidin-3-yl]pyrazin-2-amine], the EC50 with Mia Paca-2 cells (setting [2]) was 73.3 nM. At CHK1 (kinase domain), the Ki stood at 21.7 nM.

In turn, `C[C@@H]1CCNC[C@@H]1Nc1cncc(-c2cnn3ccccc23)n1` [Example 206, N-[(3R,4R)-4-methylpiperidin-3-yl]-6-(pyrazolo[1,5-a]pyridin-3-yl)pyrazin-2-amine] gave an EC50 with Mia Paca-2 cells (setting [2]) of 240 nM. At CHK1 (kinase domain), this molecule showed an inhibitory constant (Ki) of 48.2 nM.

In turn, `C[C@H]1NCCC[C@H]1Nc1cncc(-c2cnc3cnccn23)n1` [Example 163, 6-(imidazo[1,2-a]pyrazin-3-yl)-N-[(2R,3R)-2-methylpiperidin-3-yl]pyrazin-2-amine] gave an EC50 in the assay on Mia Paca-2 cells (setting [2]) of 248 nM. The molecule also displayed an inhibition constant (Ki) at CHK1 (kinase domain) of 14 nM.

Consider `COC[C@@H]1C[C@@H](Nc2cncc(-c3cnc4cc(F)ccn34)n2)CN1` [Example 236, 6-(7-fluoroimidazo[1,2-a]pyridin-3-yl)-N-[(3R,5S)-5-(methoxymethyl)pyrrolidin-3-yl]pyrazin-2-amine], for which the concentration giving a half-maximal response (EC50) in the assay on Mia Paca-2 cells (setting [2]) worked out at 479 nM. The Ki on CHK1 (kinase domain) came to 87.6 nM.

Consider `Clc1ccc2ncc(-c3cncc(N[C@@H]4CCCNC4)n3)n2c1` [Example 5, 6-(6-Chloroimidazo[1,2-a]pyridin-3-yl)-N-[(3R)-piperidin-3-yl]pyrazin-2-amine], for which, in the assay with Mia Paca-2 cells (setting [1]), the EC50 amounted to 18.3 nM. Moreover, affinity on CHK1 (kinase domain) was put at a Ki of 2.49 nM.

`CC(CO)(CO)COc1ccc2c(c1)ncn2-c1cncc(N[C@@H]2CCCNC2)n1` [Example 256, 2-methyl-2-{[(1-{6-[(3R)-piperidin-3-ylamino]pyrazin-2-yl}-1H-benzimidazol-5-yl)oxy]methyl}propane-1,3-diol] returned an EC50 with Mia Paca-2 cells (setting [2]) of 53.7 nM. On CHK1 (kinase domain), this molecule gave a Ki of 1.26 nM.

In turn, `Cc1ncc(-c2cnc3ccccn23)nc1N[C@@H]1CCCNC1` [Example 16, 6-(imidazo[1,2-a]pyridin-3-yl)-3-methyl-N-[(3R)-piperidin-3-yl]pyrazin-2-amine] showed a concentration giving a half-maximal response (EC50) in the assay on Mia Paca-2 cells (setting [1]) of 81.1 nM. Also, at CHK1 (kinase domain), the inhibition constant (Ki) was 19.4 nM.

Consider `OC[C@@H]1C[C@@H](Nc2cncc(-c3cnc4ccccn34)n2)CN1` [Example 238, [(2S,4R)-4-{[6-(imidazo[1,2-a]pyridin-3-yl)pyrazin-2-yl]amino}pyrrolidin-2-yl]methanol], for which a half-maximal effect with Mia Paca-2 cells (setting [2]) (EC50) was put at 87.1 nM. In addition, the affinity at CHK1 (kinase domain) corresponds to a Ki of 4.9 nM.

In turn, `C[C@@H]1CNC[C@@H]1Nc1cncc(-c2cnc3ccc(C(C)(C)O)cn23)n1` [Example 14, 2-[3-(6-{[(3R,4R)-4-methylpyrrolidin-3-yl]amino}pyrazin-2-yl)imidazo[1,2-a]pyridin-6-yl]propan-2-ol] gave an EC50 in the assay with Mia Paca-2 cells (setting [2]) of 4210 nM. On CHK1 (kinase domain), this molecule returned an inhibition constant Ki of 33.6 nM.

In turn, `C[C@@H]1CNC[C@@H]1Nc1cncc(-n2cnc3cc(OCC4(C)COC4)ccc32)n1` [Example 234, 6-{5-[(3-methyloxetan-3-yl)methoxy]-1H-benzimidazol-1-yl}-N-[(3R,4R)-4-methylpyrrolidin-3-yl]pyrazin-2-amine] registered an EC50 in the assay with Mia Paca-2 cells (setting [2]) of 89.9 nM. The Ki on CHK1 (kinase domain) turned out to be 2.5 nM.

With `C[C@@H]1CNC[C@@H]1Nc1cncc(-c2cnn3cccc(F)c23)n1` [Example 200, 6-(4-fluoropyrazolo[1,5-a]pyridin-3-yl)-N-[(3R,4R)-4-methylpyrrolidin-3-yl]pyrazin-2-amine], the half-maximal effective concentration (EC50) with Mia Paca-2 cells (setting [2]) is 127 nM. Also, the “percent inhibition (where no Ki data is available)” value on CHK1 (kinase domain) is on record as 26.1%^.

In the case of `C[C@@H]1CCNC[C@@H]1Nc1cncc(-c2cnc3ccccn23)n1` [Example 204, 6-(imidazo[1,2-a]pyridin-3-yl)-N-[(3R,4R)-4-methylpiperidin-3-yl]pyrazin-2-amine], the half-maximal effective concentration (EC50) with Mia Paca-2 cells (setting [1]) is 74.9 nM. The molecule further registered a Ki on CHK1 (kinase domain) of 54.5 nM.

In the assay with Mia Paca-2 cells (setting [2]), `N#Cc1ncc(N[C@@H]2CCNC2)nc1-c1cnc2ccccn12` [Example 267, 3-(imidazo[1,2-a]pyridin-3-yl)-5-[(3R)-pyrrolidin-3-ylamino]pyrazine-2-carbonitrile] registered an EC50 of 10000 nM.

As for `F[C@H]1CNC[C@@H]1Nc1cncc(-c2cnc3ccccn23)n1` (relative stereo) [Example 46, Trans N-[4-fluoropyrrolidin-3-yl]-6-imidazo[1,2-a]pyridin-3-ylpyrazin-2-amine], the concentration giving a half-maximal response (EC50) in the assay on HeLa cells was determined as 7970 nM. Besides, the “percent inhibition (where no Ki data is available)” value at CHK1 (kinase domain) worked out at 29.7%^.

As to `CCc1cn2c(-c3cncc(N[C@H]4CCCN[C@@H]4C)n3)cnc2s1` [Example 174, 6-(2-ethylimidazo[2,1-b][1,3]thiazol-5-yl)-N-[(2R,3S)-2-methylpiperidin-3-yl]pyrazin-2-amine], in the assay with HeLa cells, the EC50 is ≥ 10000 nM. The molecule further gave a Ki at CHK1 (kinase domain) of 16.9 nM.

For the molecule `c1cn2c(-c3cncc(N[C@@H]4C[C@@H]5CN[C@H]4C5)n3)cnc2cn1` [Example 147, (1S,4R,6R)-N-(6-imidazo[1,2-a]pyrazin-3-ylpyrazin-2-yl)-2-azabicyclo[2.2.1]heptan-6-amine], the EC50 in the assay on HeLa cells stood at 295 nM. Moreover, the Ki on CHK1 (kinase domain) was found to be 12.9 nM.

For the molecule `FC1(F)CCNC[C@H]1Nc1cncc(-c2cnc3ccccn23)n1` [Example 248, N-[(3R)-4,4-difluoropiperidin-3-yl]-6-(imidazo[1,2-a]pyridin-3-yl)pyrazin-2-amine], the EC50 in the assay with HeLa cells is ≥ 10000 nM. The Ki on CHK1 (kinase domain) came out at 45.3 nM.
